Data as given in PMC6917698, “One-Pot Radiosynthesis and Biological Evaluation of a Caspase-3 Selective 5-[^123,125I]iodo-1,2,3-triazole derived Isatin SPECT Tracer” (Scientific Reports, 2019).

How the values were obtained:
[1] = Log D measurement (n-octanol/PBS, gamma counting); format: physicochemical; settings: measured with 125I-labelled compound
[2] = target: T1, Recombinant human caspase-3 (Homo sapiens, UniProt P42574); assay: Caspase enzyme inhibition assay (fluorogenic Ac-DEVD-AMC), caspase-3
T1 sequence (P42574 29-175 limits assumed): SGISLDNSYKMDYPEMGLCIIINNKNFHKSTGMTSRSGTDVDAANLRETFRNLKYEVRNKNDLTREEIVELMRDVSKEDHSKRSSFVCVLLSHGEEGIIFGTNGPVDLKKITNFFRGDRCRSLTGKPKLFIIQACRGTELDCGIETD
T1 sequence (P42574 176-277 limits assumed): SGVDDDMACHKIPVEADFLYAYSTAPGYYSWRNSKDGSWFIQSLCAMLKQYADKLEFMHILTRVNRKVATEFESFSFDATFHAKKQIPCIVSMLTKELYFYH

[3] = test system: SW1222 tumour-bearing mice; assay: Ex vivo biodistribution in SW1222 tumour-bearing mice; settings: for Uptake in tumour: SW1222 xenograft, 60 min after i.v. injection
[4] = target: Recombinant human caspase-8 (Homo sapiens, UniProt Q14790); assay: Caspase enzyme inhibition assay (fluorogenic Ac-IETD-AMC), caspase-8
[5] = Plasma metabolite analysis by HPLC; format: in vivo, mice; settings: 15 min post-injection, i.v.
Description: However, the overall uptake in the tumour was too low to allow in vivo imaging of tumour apoptosis with SPECT. […] It is unclear if this reflects drug induced apoptosis, or if the observed changes were due to swelling or increased local blood flow. […] A single polar radioactive metabolite was detected consistent with deiodination in vivo to give [^125I]iodide. However, it should be noted that a similar polar metabolite has been observed for the non-iodinated analog [^18F]ICM-11, and the low uptake in the thyroid (2.4 ± 1%ID/g at 60 min post-injection) and high liver uptake point to another metabolic route. In any case, the rapid metabolism makes FITI poorly suited as a tracer for in vivo imaging of apoptosis.
After an incubation period at 37 °C
linear correlation software (OriginPro 2015).
3.2. Plasma metabolite analysis
The supernatant was decanted and mixed with
3.3. Biodistribution studies in mice
week prior to initiation of studies.
College London Animal Ethics Committee.4
were rapidly excised and weighed.

[6] = control animals, 60 min after i.v. tail vein injection

Recombinant human caspase-8, sequence (Q14790 217-374 limits assumed): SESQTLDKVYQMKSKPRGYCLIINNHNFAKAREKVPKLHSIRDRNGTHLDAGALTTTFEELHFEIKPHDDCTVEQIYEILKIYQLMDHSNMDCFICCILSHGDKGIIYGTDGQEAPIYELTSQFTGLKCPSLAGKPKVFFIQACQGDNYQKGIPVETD
Recombinant human caspase-8, sequence (Q14790 385-479 limits assumed): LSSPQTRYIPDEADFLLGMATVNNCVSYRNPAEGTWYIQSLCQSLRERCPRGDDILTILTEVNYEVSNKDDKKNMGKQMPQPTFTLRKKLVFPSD

SMILES | logD [1] | Ki [2] [µM] | Increase in tumour uptake after etoposide-induced cell death ([3]; SW1222 xenograft model, etoposide vs control) [fold] | IC50 [4] [µM] | Intact parent tracer in mouse plasma [5] | Uptake in thyroid ([3]; 60 min post-injection) [%ID/g] | Uptake in liver [3, 6] [%ID/g] | Uptake in small intestine [3, 6] [%ID/g] | Uptake in stomach [3, 6] [%ID/g] | Uptake in tumour ([3]; control animals) [%ID/g] | Uptake in tumour ([3]; etoposide-treated mice (50 mg/kg, 24 hrs, i.p.), p < 0.001 vs control) [%ID/g]
O=C1C(=O)N(Cc2nnn(CCF)c2I)c2ccccc21 [compound 4] | 1.14 ± 0.06 | > 50 | – | – | – | – | – | – | – | – | –
O=C1C(=O)N(Cc2nnn(CCF)c2I)c2ccc(S(=O)(=O)N3CCC[C@H]3COc3ccc(F)cc3F)cc21 [FITI, (S)-5-((2-((2,4-difluorophenoxy)methyl)pyrrolidin-1-yl)sulfonyl)-1-((1-(2-Fluoroethyl)-5-(Iodo)-1H-1,2,3-Triazol-4-yl)methyl)Indoline-2,3-dione] | 1.6 ± 0.1 | 0.0061 ± 0.0009 | 2 | > 50 | – | – | – | – | – | – | –
O=C1C(=O)N(Cc2nnn(CCF)c2[125I])c2ccc(S(=O)(=O)N3CCCC3COc3ccc(F)cc3F)cc21 (stereo not shown) [[^125I]FITI] | – | – | – | – | less than 50% | 2.4 ± 1 | 17 ± 6 | 48 ± 13 | 28 ± 25 | 0.7 ± 0.4 | 1.5 ± 0.2
